{"source": "paper PMC8950173", "about": "(Pharmaceuticals, 2022)", "key": {"human recombinant HDAC1": {"biological_target": "T1, human recombinant HDAC1 (Homo sapiens, UniProt Q13547)", "T1 construct": "purchased BPS Bioscience Inc. 50051", "T1 sequence (Q13547 whole entry)": "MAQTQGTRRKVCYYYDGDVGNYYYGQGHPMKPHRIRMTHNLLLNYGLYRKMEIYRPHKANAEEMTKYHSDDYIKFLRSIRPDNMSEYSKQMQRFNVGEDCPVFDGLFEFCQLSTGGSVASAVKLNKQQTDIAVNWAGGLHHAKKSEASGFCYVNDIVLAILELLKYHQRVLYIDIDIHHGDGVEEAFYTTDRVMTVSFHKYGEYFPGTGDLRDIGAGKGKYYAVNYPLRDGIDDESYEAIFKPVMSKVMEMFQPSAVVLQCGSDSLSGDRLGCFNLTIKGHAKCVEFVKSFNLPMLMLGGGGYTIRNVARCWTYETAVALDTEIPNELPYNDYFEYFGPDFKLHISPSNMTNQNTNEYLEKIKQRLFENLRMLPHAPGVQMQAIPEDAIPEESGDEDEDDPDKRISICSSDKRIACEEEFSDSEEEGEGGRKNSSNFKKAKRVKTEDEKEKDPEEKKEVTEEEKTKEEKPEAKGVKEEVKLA", "assay": "Inhibition assay HDAC1 (fluorogenic substrate ZMAL)", "type": "biochemical", "details": "60 min preincubation at 25 °C", "experimental": "(§1) In vitro inhibitory activities against HDAC1−3 and HDAC6 were measured as previously published with minor modifications. […] Subsequently, 50 µL trypsin solution (0.4 mg/mL trypsin in buffer: 50 mM Tris−HCl, pH = 8.0, 100 mM NaCl) was added, followed by additional 30 min of incubation at 37 °C. […] All compounds were tested at least twice in duplicates."}, "human recombinant HDAC6": {"biological_target": "T2, human recombinant HDAC6 (Homo sapiens, UniProt Q9UBN7)", "T2 construct": "purchased BPS Bioscience Inc. 50006", "T2 sequence (Q9UBN7 1-1215)": "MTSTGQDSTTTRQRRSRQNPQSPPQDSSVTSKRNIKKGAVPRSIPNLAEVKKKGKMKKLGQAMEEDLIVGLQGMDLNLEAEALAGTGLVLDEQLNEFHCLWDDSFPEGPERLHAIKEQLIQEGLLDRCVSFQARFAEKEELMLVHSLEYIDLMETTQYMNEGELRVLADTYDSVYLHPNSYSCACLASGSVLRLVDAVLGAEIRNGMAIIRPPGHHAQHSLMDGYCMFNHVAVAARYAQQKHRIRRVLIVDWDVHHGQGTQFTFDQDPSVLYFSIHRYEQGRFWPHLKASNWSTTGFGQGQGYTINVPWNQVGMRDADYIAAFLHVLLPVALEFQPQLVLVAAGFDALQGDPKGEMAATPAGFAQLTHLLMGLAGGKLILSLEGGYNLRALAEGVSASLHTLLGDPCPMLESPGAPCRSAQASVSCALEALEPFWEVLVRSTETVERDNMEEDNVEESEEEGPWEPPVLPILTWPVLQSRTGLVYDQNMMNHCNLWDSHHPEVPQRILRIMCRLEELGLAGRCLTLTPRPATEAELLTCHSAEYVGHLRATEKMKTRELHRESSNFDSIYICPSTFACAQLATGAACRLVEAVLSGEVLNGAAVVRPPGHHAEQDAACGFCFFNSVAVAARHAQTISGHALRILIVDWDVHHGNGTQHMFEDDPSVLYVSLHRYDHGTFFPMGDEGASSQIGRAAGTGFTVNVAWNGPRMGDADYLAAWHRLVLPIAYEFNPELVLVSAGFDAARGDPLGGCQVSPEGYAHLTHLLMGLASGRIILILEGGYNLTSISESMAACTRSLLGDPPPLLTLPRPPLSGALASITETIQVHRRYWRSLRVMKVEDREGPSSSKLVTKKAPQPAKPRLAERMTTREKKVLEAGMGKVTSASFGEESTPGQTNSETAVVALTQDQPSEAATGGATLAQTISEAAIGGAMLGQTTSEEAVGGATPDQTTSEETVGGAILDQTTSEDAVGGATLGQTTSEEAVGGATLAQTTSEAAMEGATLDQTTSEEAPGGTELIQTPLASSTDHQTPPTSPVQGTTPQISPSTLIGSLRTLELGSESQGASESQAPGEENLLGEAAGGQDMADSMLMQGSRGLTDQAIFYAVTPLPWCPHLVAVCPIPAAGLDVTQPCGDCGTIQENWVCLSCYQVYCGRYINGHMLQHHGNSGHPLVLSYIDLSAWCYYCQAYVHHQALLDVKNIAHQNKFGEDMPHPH", "assay": "Inhibition assay HDAC6 (fluorogenic substrate ZMAL)", "type": "biochemical", "details": "from IC50 values", "experimental": "as §1"}}, "data": [{"smiles": "CC([18F])C(=O)NCc1ccc(C(=O)Nc2cc(-c3ccsc3)ccc2N)cc1", "note": "(centres unmarked) [[^18F]BA3]", "values": [{"measurement": "IC50", "setting": "human recombinant HDAC1", "value": "4.8 ± 0.6", "unit": "nM"}, {"measurement": "specificity ratio HDAC1 over HDAC6", "setting": "human recombinant HDAC6", "value": "> 2080"}]}]}
